From PubChem BioAssay (NCI)
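How tested: cells in 96-well plates exposed to compound for 48 hours at five concentrations. TGI is the concentration that stops growth completely.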

Tests used:
Assay in all cases: NCI-60 cell line screen, 48 h
SF-539 CNS = tested on: SF-539 CNS
DU-145 prostate = tested on: DU-145 prostate
NCI-H23 lung = tested on: NCI-H23 lung
TK-10 renal = tested on: TK-10 renal
K-562 leukemia = tested on: K-562 leukemia
CAKI-1 renal = tested on: CAKI-1 renal
CCRF-CEM leukemia = tested on: CCRF-CEM leukemia
ACHN renal = tested on: ACHN renal
HL-60(TB) leukemia = tested on: HL-60(TB) leukemia
BT-549 breast = tested on: BT-549 breast

| Compound | TGI (SF-539 CNS) [µM] | TGI (DU-145 prostate) [µM] | TGI (NCI-H23 lung) [µM] | TGI (TK-10 renal) [µM] | TGI (K-562 leukemia) [µM] | TGI (CAKI-1 renal) [µM] | TGI (CCRF-CEM leukemia) [µM] | TGI (ACHN renal) [µM] | TGI (HL-60(TB) leukemia) [µM] | TGI (BT-549 breast) [µM] |
| --- | --- | --- | --- | --- | --- | --- | --- | --- | --- | --- |
| O=C1Nc2ccccc2/C1=C\c1c(Cl)n(-c2ccccc2)c2ccccc12 | 18.4 | 8.91 | 14 | 27 | > 100 | 21.9 | > 100 | 29.7 | > 100 | 29.8 |
| COc1nc(Cl)nc(N[C@H](C)c2c3ccccc3cc3ccccc23)n1 | 33.8 | 25 | 31.8 | 14.8 | 97.8 | 25.9 | 29.6 | 31.7 | 58.8 | 32.5 |
| Cc1cn(CCCCCCOC(=O)NC(CCCNC(N)=O)C(=O)O)c(=O)[nH]c1=O (centres undefined) | > 100 | > 100 | > 100 | > 100 | > 100 | > 100 | > 100 | > 100 | > 100 | > 100 |
| O=S(=O)(Nc1nc2ccccc2nc1N1CCCCCC1)c1ccccc1 | 95.7 | > 100 | 44.2 | 40 | > 100 | > 100 | > 100 | 86.7 | 75.1 | 50.1 |
| Cc1nc(NC(C)(CO)CO)nc(N/N=C/c2ccc(Cl)cc2)c1C(=O)Nc1ccc(Cl)cc1 | > 100 | > 100 | > 100 | > 100 | > 100 | > 100 | > 100 | > 100 | > 100 | > 100 |
| C=C(C)C1CC(=O)C(C)=C(O)C1 (centres undefined) | > 100 | > 100 | > 100 | > 100 | > 100 | > 100 | > 100 | > 100 | > 100 | > 100 |
| COc1cc(CCNC2=CC(=O)c3nc[nH]c3C2=O)ccc1O | > 100 | 34.6 | 48.6 | 87.5 | > 100 | > 100 | > 100 | > 100 | 60.8 | 42 |
| O=CCCCCCOCc1ccccc1 | > 100 | > 100 | > 82.6 | > 100 | > 31.7 | > 66.8 | > 69.9 | > 100 | > 43.7 | > 100 |
| CN1CCN(C(=O)c2cn(Cc3cncn3Cc3ccc4c(c3)OCO4)cc2-c2cccc3ccccc23)CC1 | > 72.8 | > 100 | > 89.7 | > 100 | 53.5 | > 84.9 | > 77.2 | > 100 | 23.2 | > 63 |
| CC1=C(C)C(=O)C(C2=CC(=O)c3ccccc3C2=O)=C(C2=CC(=O)c3ccccc3C2=O)C1=O | > 100 | 12.5 | 45.5 | > 38.4 |  | 8.86 |  | 14.9 | 12.3 | 48.1 |
| O=C1NC(O)c2cc3ccccc3cc2O1 (centres undefined) | 89.9 | > 100 | > 100 | > 100 | > 100 |  | > 100 | > 100 | > 100 | 82.1 |
| O=C(O)CSC(CC(=O)c1ccc(Cl)cc1)c1ccc(Cl)cc1 (centres undefined) | > 100 | > 100 | > 100 | > 100 | > 100 | > 100 | 36.3 | > 100 | 7.45 | 80.7 |
| Cc1c(C)c2c(c(N)c1C#N)C(=O)N(N)C2=O | > 100 | > 100 | > 100 | > 100 | > 100 | > 100 | > 100 | > 100 | > 100 | > 100 |
| C[n+]1cccc2ccc3cccnc3c21 | > 100 | > 100 | > 100 | > 100 | > 100 | > 100 | > 100 | > 100 | > 100 | > 100 |
| COc1cc2c(/C=C3/C(=O)Nc4ccccc43)c(Cl)n(Cc3ccc(Cl)cc3)c2cc1C | 0.668 | 1.07 | 0.644 | 7.67 |  | 0.834 |  | 1.27 | 2.33 | 1.92 |
| Cn1/c(=N\N=C2\C=C3CCCCC3(C)CC2)sc2ccccc21 (centres undefined) | > 100 | > 100 | > 100 | > 100 | > 100 | > 100 | > 100 | > 100 | > 100 | > 100 |
| ClC1=NN=C(c2c[nH]c3ccccc23)CC1NCc1ccccc1 (centres undefined) | > 100 | > 100 | > 100 | > 100 | > 100 | > 100 | > 100 | > 100 | > 100 | > 100 |
| COC(=N)C1(C#N)NC(c2ccsc2)C(C#N)(C#N)NC1c1ccsc1 (centres undefined) | > 100 | > 100 | > 100 | > 100 | > 100 | > 100 | > 100 | > 100 | > 100 | > 100 |
| Clc1ccc2c(c1)N(CCCN1CCCC13CCCCC3)c1ccccc1S2 | 33.4 | 34.2 | 44.2 | 29.7 | 21.6 | > 76.8 | 28.3 | 47.5 | 5.18 | 32.5 |
| CC(=O)n1[nH]c(=O)n(-c2ccc(Cl)cc2)c1=O |  | > 100 | > 100 | > 100 | > 100 | > 100 | > 100 | > 100 | > 100 | > 100 |
| CCc1nc(N)c2nc(-c3cccs3)oc2n1 | > 100 | > 100 | > 100 | > 100 | > 100 | > 100 | > 100 | > 100 | > 100 | > 100 |
